Assay type in all cases: cell-based
In assay [1] the target is T1, CFTR-G178R (Homo sapiens, UniProt P13569, G178R).
T1 construct: expressed in transfected cells
The assay is described as follows: YFP-halide influx assay for the CFTR-G178R. The procedure, abridged:
(§1)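 HEK293 cells reverse-transfected with a CFTR mutant and YFP H148Q/I152L/F47L halide sensor, expressed 24 h at 37° C. Fluorescence quenching followed for 7 s after I⁻ injection; activity expressed as 1−F/F0, with EC50 fitted from 1−F/F0 versus compound concentration.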

Assay [2] addresses T2, CFTR-G1349D (Homo sapiens, UniProt P13569, G1349D).
T2 construct: expressed in transfected cells
Briefly: YFP-halide influx assay for the CFTR-G1349D. A digest of the protocol: as §1

For assay [3], the target named is T3, CFTR-S549N (Homo sapiens, UniProt P13569, S549N).
T3 construct: expressed in transfected cells
T3 sequence (P13569 whole entry S549N): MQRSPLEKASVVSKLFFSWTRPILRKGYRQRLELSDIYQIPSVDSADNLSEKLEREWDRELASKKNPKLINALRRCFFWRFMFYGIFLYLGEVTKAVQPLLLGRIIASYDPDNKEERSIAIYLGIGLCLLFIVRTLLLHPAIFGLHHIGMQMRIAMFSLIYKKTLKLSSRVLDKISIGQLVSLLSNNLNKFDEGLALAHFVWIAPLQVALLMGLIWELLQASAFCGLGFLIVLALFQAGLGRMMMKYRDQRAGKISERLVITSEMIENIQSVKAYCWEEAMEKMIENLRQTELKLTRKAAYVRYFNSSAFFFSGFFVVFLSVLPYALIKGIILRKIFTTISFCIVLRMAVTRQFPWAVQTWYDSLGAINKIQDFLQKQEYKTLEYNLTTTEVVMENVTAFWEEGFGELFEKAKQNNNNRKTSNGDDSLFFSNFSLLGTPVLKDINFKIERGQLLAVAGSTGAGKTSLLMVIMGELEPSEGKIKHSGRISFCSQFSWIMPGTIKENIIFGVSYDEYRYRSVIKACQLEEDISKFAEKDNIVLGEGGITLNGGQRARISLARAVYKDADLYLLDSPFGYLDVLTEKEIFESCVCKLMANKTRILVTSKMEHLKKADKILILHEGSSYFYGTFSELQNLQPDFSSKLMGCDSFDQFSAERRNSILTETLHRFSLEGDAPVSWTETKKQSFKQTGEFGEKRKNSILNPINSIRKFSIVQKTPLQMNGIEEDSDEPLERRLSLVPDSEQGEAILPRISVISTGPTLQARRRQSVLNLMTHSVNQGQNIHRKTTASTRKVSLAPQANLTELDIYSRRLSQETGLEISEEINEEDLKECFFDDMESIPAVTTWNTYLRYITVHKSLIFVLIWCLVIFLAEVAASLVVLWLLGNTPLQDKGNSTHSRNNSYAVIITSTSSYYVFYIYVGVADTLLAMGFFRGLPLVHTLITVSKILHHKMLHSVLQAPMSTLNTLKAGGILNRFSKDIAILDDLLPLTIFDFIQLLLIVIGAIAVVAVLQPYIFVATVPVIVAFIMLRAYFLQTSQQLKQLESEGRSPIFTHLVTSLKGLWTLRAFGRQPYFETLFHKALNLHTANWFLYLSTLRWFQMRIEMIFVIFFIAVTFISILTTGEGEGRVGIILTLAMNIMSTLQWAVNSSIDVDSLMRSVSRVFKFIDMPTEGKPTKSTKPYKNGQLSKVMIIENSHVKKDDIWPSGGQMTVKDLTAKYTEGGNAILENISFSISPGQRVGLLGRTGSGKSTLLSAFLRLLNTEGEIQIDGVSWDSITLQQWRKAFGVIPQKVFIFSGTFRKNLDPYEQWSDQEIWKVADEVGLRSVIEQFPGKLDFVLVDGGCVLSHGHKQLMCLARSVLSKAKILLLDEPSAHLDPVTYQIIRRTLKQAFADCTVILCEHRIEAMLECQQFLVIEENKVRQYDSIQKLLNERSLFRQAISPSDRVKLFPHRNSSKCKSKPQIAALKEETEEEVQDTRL
The assay is described as follows: YFP-halide influx assay for the CFTR-S549N. Further details: % Activation: concentration or dose not given beside the values. A digest of the protocol: as §1

Assay [4] deals with T4, CFTR ΔF508 (Homo sapiens, UniProt P13569, DEL508-508).
T4 construct: host or cells: primary human bronchial epithelial cells from CF patients homozygous for ΔF508, pre-treated with VX809
T4 sequence (P13569 with tags, fused parts or gaps DEL508-508): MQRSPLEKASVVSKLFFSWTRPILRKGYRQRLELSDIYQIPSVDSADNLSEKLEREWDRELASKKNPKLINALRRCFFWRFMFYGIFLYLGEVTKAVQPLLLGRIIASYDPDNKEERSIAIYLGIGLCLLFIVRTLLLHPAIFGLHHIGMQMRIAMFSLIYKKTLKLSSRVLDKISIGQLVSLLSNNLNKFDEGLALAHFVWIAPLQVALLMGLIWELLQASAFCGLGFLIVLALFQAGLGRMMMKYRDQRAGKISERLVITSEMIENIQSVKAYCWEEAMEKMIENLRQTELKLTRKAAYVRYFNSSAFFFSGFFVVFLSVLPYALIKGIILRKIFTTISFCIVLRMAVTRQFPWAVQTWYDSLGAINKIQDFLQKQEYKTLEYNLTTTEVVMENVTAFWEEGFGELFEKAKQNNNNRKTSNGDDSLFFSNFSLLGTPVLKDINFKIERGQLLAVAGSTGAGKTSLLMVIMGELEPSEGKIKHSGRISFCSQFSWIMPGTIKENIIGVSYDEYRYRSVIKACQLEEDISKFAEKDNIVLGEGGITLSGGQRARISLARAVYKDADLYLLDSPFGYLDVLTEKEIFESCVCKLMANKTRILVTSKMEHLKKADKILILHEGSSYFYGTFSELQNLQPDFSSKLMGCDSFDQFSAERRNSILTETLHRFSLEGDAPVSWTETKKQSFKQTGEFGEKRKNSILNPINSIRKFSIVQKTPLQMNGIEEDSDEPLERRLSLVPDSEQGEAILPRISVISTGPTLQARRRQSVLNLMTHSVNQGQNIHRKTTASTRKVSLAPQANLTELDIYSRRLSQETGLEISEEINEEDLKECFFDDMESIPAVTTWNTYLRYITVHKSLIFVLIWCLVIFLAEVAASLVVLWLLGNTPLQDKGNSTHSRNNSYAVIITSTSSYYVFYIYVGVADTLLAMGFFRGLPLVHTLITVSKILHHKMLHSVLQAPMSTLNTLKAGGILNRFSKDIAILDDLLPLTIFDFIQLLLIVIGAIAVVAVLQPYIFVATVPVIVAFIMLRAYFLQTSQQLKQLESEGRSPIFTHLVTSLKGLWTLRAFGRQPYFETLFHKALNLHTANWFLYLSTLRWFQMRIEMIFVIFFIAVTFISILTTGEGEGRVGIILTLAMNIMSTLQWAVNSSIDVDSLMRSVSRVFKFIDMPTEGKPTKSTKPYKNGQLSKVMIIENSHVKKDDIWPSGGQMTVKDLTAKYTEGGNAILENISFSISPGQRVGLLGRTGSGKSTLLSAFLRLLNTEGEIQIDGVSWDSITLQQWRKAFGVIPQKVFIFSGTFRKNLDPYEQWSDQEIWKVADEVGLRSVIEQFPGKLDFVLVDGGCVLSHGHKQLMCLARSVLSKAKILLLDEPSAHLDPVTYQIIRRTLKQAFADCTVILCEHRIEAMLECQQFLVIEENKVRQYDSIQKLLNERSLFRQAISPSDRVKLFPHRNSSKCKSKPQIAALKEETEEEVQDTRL
Briefly: TECC assay, primary bronchial epithelial cells, CFTR ΔF508. As to conditions: primary bronchial epithelial cells of CF patients homozygous for CFTR ΔF508, treated with 3 μM VX809, increase in Isc after forskolin. Here is the method:
The TECC (Tranepithelial Clamp Circuit, EP-design) assay measures the functionality of the cystic fibrosis Transmembrane Conductance regulator (CFTR) by measuring the short circuit current (Isc) generated over the basolateral and apical membrane of lung epithelial cells. In TECC the transepithelial potential PD and transepithelial resistance (Rt) are measured in an open circuit and transformed to Isc using Ohm's law. 24 Wells can be measured simultaneously allowing a higher throughput compared to Ussing chambers.
For this purpose, bronchial epithelial cells isolated from CF patients homozygous for the CFTR ΔF508 mutation (hAEC-CF, Epithelix) are plated on type IV collagen-coated Transwell® supports (Costar). Human airway epithelia are generated by provision of an air-liquid interface for 21 days to form well-differentiated polarized cultures that resemble in vivo pseudo-stratified ciliated epithelium (Fulcher, M. L., Gabriel, S., Burns, K. A., Yankaskas, J. R., Randell, S. H., 2005. Well-differentiated human airway epithelial cell cultures. Methods Mol. Med. 107, 183-206). In the case of the homozygous ΔF508 CFTR samples, the differentiated cells are treated with 3 μM VX809 (2626 South Loop West, Suite 225, Houston, Tex. 77054 USA, Cat n# S1565) to allow sufficient expression of properly folded CFTR protein on the membrane (48 hours basolateral treatment and 24 hours apical treatment), prior to electrophysiological recordings. For heterozygous G551D/ΔF508, differentiated cells are used as such for the recordings.
Information on the compounds can be retrieved on the homozygous ΔF508 CFTR samples looking at increased CFTR activity when compounds are added in an acute mode or in a chronic mode. On G551D/ΔF508 CFTR heterozygous samples compounds are added in an acute mode to the differentiated cells.
For the acute mode, for electrophysiological recording, the human airway epithelia are mounted in the TECC heating plate for electrophysiological measurement and kept at 37° C. The epithelia are bathed in a NaCl-Ringer solution (120 mM NaCl, 25 mM NaHCO3, 1.2 mM CaCl2, 1.2 mM MgCl2, 0.8 mM KH2PO4, 0.8 mM K2HPO4, pH 7.4, 5 mM glucose) on both the basolateral and apical sides. Apical amiloride is used to inhibit the endogenous ENaC currents while forkolin is applied on both apical and basolateral side to stimulate CFTR. After forskolin triggering, compounds are added on both sides to test their potential for increasing CFTR gating. Measurements are done during a 20 minute timeframe with recordings every 2 minutes. The increase in Isc is used as a measure for the increased CFTR activity, EC50 values can be generated by measuring impact of different concentrations of compound on Isc on primary cells, for this purpose each transwell is treated with a different compound concentration. Inh-172, an inhibitor specific for CFTR, is used to test the specificity of the tested compounds.
For the chronic mode, the differentiated cells are treated with 3 μM VX809 (2626 South Loop West, Suite 225, Houston, Tex. 77054 USA, Cat n# S1565) and potentiator compounds at different concentrations (48 hours basolateral treatment and 24 hours apical treatment), prior to electrophysiological recordings. For electrophysiological recording, the human airway epithelia are mounted in the TECC heating plate for electrophysiological measurement and kept at 37° C. The epithelia are bathed in a NaCl-Ringer solution (120 mM NaCl, 25 mM NaHCO3, 1.2 mM CaCl2, 1.2 mM MgCl2, 0.8 mM KH2PO4, 0.8 mM K2HPO4, pH 7.4, 5 mM glucose) on both the basolateral and apical sides. Apical amiloride is used to inhibit the endogenous ENaC currents while forkolin is applied on both apical and basolateral side to stimulate CFTR. Measurements are done during a 20 minute timeframe with recordings every 2 minutes. […]

T2 sequence (P13569 whole entry G1349D): as the sequence (P13569 whole entry S549N) above, with N549S, G1349D counted along it
T1 sequence (P13569 whole entry G178R): as the sequence (P13569 whole entry S549N) above, with G178R, N549S counted along it

By EC50 is commonly meant the concentration giving half of the maximal effect. In the case of `CC(O)(CNC(=O)c1ncc(S(=O)(=O)c2ccc(OC(F)(F)F)cc2)cc1N)C(F)(F)F` (centres unmarked) [Compound 2, 3-amino-N-(3,3,3-trifluoro-2-hydroxy-2-methylpropyl)-5-{[4-(trifluoromethoxy)phenyl]sulfonyl}pyridine-2-carboxamide], the “% Activation” value was 71.8% in assay [1], 69.4% in assay [2] and 70.3% in assay [3]. The EC50 in assay [1] was 494 nM; in assay [2], 567 nM; in assay [3] it was 331 nM; in assay [4], 47.1 nM.
Consider `Nc1cc(S(=O)(=O)c2ccc(OC(F)(F)F)cc2)cnc1C(=O)NC[C@H](O)C(F)(F)F` [Compound 26, 3-amino-N-[(2S)-3,3,3-trifluoro-2-hydroxypropyl]-5-{[4-(trifluoromethoxy)phenyl]sulfonyl}pyridine-2-carboxamide], for which the EC50 in assay [4] stood at 24 nM.
As for `Nc1cc(S(=O)(=O)c2ccc(OC(F)(F)F)cc2)cnc1C(=O)NCC(O)C(F)(F)F` (centres unmarked) [Compound 6, 3-amino-N-(3,3,3-trifluoro-2-hydroxypropyl)-5-{[4-(trifluoromethoxy)phenyl]sulfonyl}pyridine-2-carboxamide], the “% Activation” value is listed as 93.1% in assay [1], 87.4% in assay [2] and 87.1% in assay [3]. Further, the EC50 in assay [1] stood at 80.7 nM; in assay [2], 158 nM; in assay [3] it was 390 nM; in assay [4], 63.2 nM.
Take `CC(C)(O)CNC(=O)c1ncc(S(=O)(=O)c2ccc(OC(F)(F)F)cc2)cc1N` [Compound 1, 3-amino-N-(2-hydroxy-2-methylpropyl)-5-{[4-(trifluoromethoxy)phenyl]sulfonyl}pyridine-2-carboxamide]: the “% Activation” value in assay [1] worked out at 82.7%; in assay [2], 69.6%; in assay [3] it was 72.7%. Besides, the EC50 in assay [1] came out at 302 nM; in assay [2], 265 nM; in assay [3], 580 nM; in assay [4], 95.9 nM.
As for `Nc1cc(S(=O)(=O)c2ccccc2OC(F)(F)F)cnc1C(=O)NC[C@@H](O)C(F)(F)F` [Compound 81, 3-amino-N-[(2R)-3,3,3-trifluoro-2-hydroxypropyl]-5-{[2-(trifluoromethoxy)phenyl]sulfonyl}pyridine-2-carboxamide], the “% Activation” value in assay [1] stood at 104.8%; in assay [2], 96.01%; in assay [3], 107%. Besides, the concentration for a half-maximal effect (EC50) turned out to be 12.6 nM in assay [1], 9.54 nM in assay [2], 11.1 nM in assay [3] and 9.49 nM in assay [4].
For `Nc1cc(S(=O)(=O)c2ccc(OC(F)(F)F)cc2)cnc1C(=O)NCCO` [Compound 14, 3-amino-N-(2-hydroxyethyl)-5-{[4-(trifluoromethoxy)phenyl]sulfonyl}pyridine-2-carboxamide], the “% Activation” value turned out to be 70.7% in assay [1], 66.7% in assay [2] and 68.9% in assay [3]. In addition, the values for the EC50 in assay [1], in assay [2] and in assay [3] were 741 nM, 816 nM and 1100 nM, respectively.
Take `Nc1cc(S(=O)(=O)c2ccc(OC(F)(F)F)cc2)cnc1C(=O)N1CC(O)C1` [Compound 32, (3-amino-5-{[4-(trifluoromethoxy)phenyl]sulfonyl}pyridin-2-yl)(3-hydroxyazetidin-1-yl)methanone]: the “% Activation” value in assay [1] came out at 78.0%; in assay [2], 88.0%; in assay [3], 91.7%. Also, the EC50 in assay [1] worked out at 522 nM; in assay [2] it was 536 nM; in assay [3], 711 nM; in assay [4], 72.9 nM.
Consider `COC[C@H](O)CNC(=O)c1ncc(S(=O)(=O)c2ccc(C(F)(F)F)cc2)cc1N` [Compound 70, 3-amino-N-[(2R)-2-hydroxy-3-methoxypropyl]-5-{[4-(trifluoromethyl)phenyl]sulfonyl}pyridine-2-carboxamide], for which the “% Activation” value in assay [1] came out at 96.0%; in assay [2], 89.6%; in assay [3] it was 104.7%. For the same molecule, the EC50 in assay [1] was 425 nM; in assay [2], 378 nM; in assay [3] it was 526 nM; in assay [4], 38.8 nM.
On to `Nc1cc(S(=O)(=O)c2ccc(F)cc2)cnc1C(=O)NC[C@H](O)C(F)(F)F` [Compound 25, 3-amino-5-[(4-fluorophenyl)sulfonyl]-N-[(2S)-3,3,3-trifluoro-2-hydroxypropyl]pyridine-2-carboxamide], for which the “% Activation” value in assay [1] is 76.8%; in assay [2], 82.6%; in assay [3], 82.5%. For the same molecule, the EC50 was 211 nM in assay [1], 412 nM in assay [2], 292 nM in assay [3] and 38.6 nM in assay [4].
With `Nc1cc(S(=O)(=O)c2ccc(OC(F)(F)F)cc2)cnc1C(=O)NCC(O)COCC1CC1` (centres unmarked) [Compound 31, 3-amino-N-[3-(cyclopropylmethoxy)-2-hydroxypropyl]-5-{[4-(trifluoromethoxy)phenyl]sulfonyl}pyridine-2-carboxamide], the results for the “% Activation” value in assay [1], in assay [2] and in assay [3] were 84.3%, 86.8% and 91.4%, respectively. In addition, the EC50 is 348 nM in assay [1], 511 nM in assay [2], 567 nM in assay [3] and 48.4 nM in assay [4].
Consider `C[C@H](O)CNC(=O)c1ncc(S(=O)(=O)c2ccc(C(F)(F)F)cc2)cc1N` [Compound 100, 3-amino-N-[(2S)-2-hydroxypropyl]-5-{[4-(trifluoromethyl)phenyl]sulfonyl}pyridine-2-carboxamide], for which the “% Activation” value in assay [1] turned out to be 78.7%; in assay [2], 75.5%; in assay [3], 103.0%. The values for the EC50 in assay [1], in assay [2] and in assay [3] were 546 nM, 533 nM and 648 nM, respectively.
As for `C[C@H](O)CNC(=O)c1ncc(S(=O)(=O)c2ccc(OC(F)(F)F)cc2)cc1N` [Compound 21, 3-amino-N-[(2S)-2-hydroxypropyl]-5-{[4-(trifluoromethoxy)phenyl]sulfonyl}pyridine-2-carboxamide], the entries for the “% Activation” value in assay [1], in assay [2] and in assay [3] were 86.1%, 88.9% and 86.4%, respectively. Besides, the EC50 in assay [1] was found to be 284 nM; in assay [2], 498 nM; in assay [3], 748 nM; in assay [4], 35.5 nM.
As to `Nc1cc(S(=O)(=O)c2ccc(OC(F)(F)F)cc2)cnc1C(=O)NC[C@@H](O)C(F)(F)F` [Compound 37, 3-amino-N-[(2R)-3,3,3-trifluoro-2-hydroxypropyl]-5-{[4-(trifluoromethoxy)phenyl]sulfonyl}pyridine-2-carboxamide], the EC50 in assay [4] amounted to 13.2 nM.

(Values after US10047051B2, “Substituted pyridines and method of use” (AbbVie S.á{acute over (.)}r.l., priority 2015, dated 2018).)
